{
  "source": "paper PMC8003975",
  "about": "(Cancers, 2021)",
  "key": {"c-Met": {"tested_on": "c-Met", "assay": "Western blot of treated HNC cells", "type": "cell-based, human", "conditions": "Cal27, JHU029 and JHU022 cells, 48 hr; 2% or 3% BME, 10 or 20 µg/mL M-I; vs vehicle control", "procedure": "(§1) Figure 2 Momordicine-I inhibited c-Met signaling in HNC cells. (A) Cal27, JHU029 […] cells were treated with either 2% BME or 10 µg/mL of M-I and JHU022 cells were treated with either 3% BME or 20 µg/mL dose of M-I. Cell lysates were prepared after 48 hr of treatment and subjected to Western blot analysis using specific antibodies. Representative Western blot images for c-Met expression in Cal27, JHU029 and JHU022 cells are shown. Membrane was reprobed with the antibody for actin as an internal control. (B) Representative Western blot image for phospho-STAT3 (pSTAT3 Tyr-705) and total STAT3 expression in Cal27 and JHU029 cells with BME or M-I treatment. Membrane was reprobed by actin as an internal control. Quantitative representation of Western blot band intensities (right panel). Small bar indicates standard error (* p < 0.05; *** p < 0.001). (C) Cal27 cells were treated with 2% BME or M-I (10 μg/mL) at indicated time points. (D) Cal27 cells were treated with control siRNA or siRNA to c-Met (si-Met) for 48 hr. Cell lysates (from panels c and D) were subjected to analyze by western blot for pSTAT3 or STAT3 using specific antibody. Membranes were reprobed by actin as internal control. Quantitative representation of Western blot band intensities (right panel). Small bar indicates standard error (*** p < 0.001).\n(§2) Bitter melon extract (BME) was prepared from the Chinese variety of young bitter melons (raw and green) as described previously. Briefly, BME was prepared by aqueous extraction from whole fruit without seeds using a household juicer at room temperature with subsequent centrifugation at 15000× g at 4 °C for 30 min. BME was stored at −80 °C for further analysis. Cal27 and JHU029 cells were treated with 2% BME and JHU022 cells were treated with 3% BME as described previously. The momordicine-I (>98% pure) was purchased from Chemfaces (Cat. No.: CFN92076; Hubei, China). The powder was dissolved in DMSO and added to the cells at different concentrations. Based on cytotoxicity data, Cal27 and JHU029 cells were treated with 10 µg/mL and JHU022 cells were treated with 20 µg/mL dose of M-I and incubated for 48 hr for further experiments. All the experiments were done at least in triplicate.\n(§3) Lysates from control, BME or M-I treated cells and tumors were prepared using 2× SDS sample buffer and subjected to western blot analysis using specific antibodies to c-Met (1: 500, Cell Signaling Technology, CST, Denvers, MA, USA,), phospho- STAT3 (pSTAT3-Tyr-705) (1:1000, CST), total STAT3 (1:1000, CST), c-Myc (1:1000, CST), survivin (1:500, Santa Cruz Biotechnology, SBT, Dallas, TX, USA) and cyclin D1 (1: 500, SBT). HRP conjugated anti-mouse or anti-rabbit secondary antibodies were purchased from Bio-Rad (Hercules, CA, USA). The blot was reprobed with HRP conjugated β-actin antibody (1:5000; SBT) to compare protein load in each lane. Densitometry analysis was done using Image J software (NIH, Bethesda, MD, USA)."}, "phospho-STAT3 (Tyr-705)": {"tested_on": "phospho-STAT3 (Tyr-705)", "assay": "Western blot of treated HNC cells", "type": "cell-based, human", "procedure": "as §1, §2, §3"}, "total STAT3": {"tested_on": "total STAT3", "assay": "Western blot of treated HNC cells", "type": "cell-based, human", "conditions": "for total STAT3 level, short term treatment: Cal27 cells, 2% BME or 10 μg/mL M-I", "procedure": "as §1, §2, §3"}, "[1]": {"assay": "Pharmacokinetic study, single dose IP or oral gavage", "type": "in vivo, C57Bl/6 male mice", "conditions": "for AUC(0-t) / Tmax / AUC(0-inf) / Cmax / half-life: male, C57Bl/6, mouse; for AUC(0-inf): read-out: AUCINF_obs (converted); for Cmax / half-life: 20 mg/kg; for half-life: read-out: T½ (elimination half-life) (converted)", "procedure": "To evaluate the pharmacokinetic (PK) profile of M-I, a single dose (20 mg/kg) was given to C57Bl/6 male mice by either intraperitoneal injection (IP group; n = 3) or oral ga-vage (oral group; n = 3). A dose of 20 mg/kg was chosen based on previous publications. The average plasma concentration ± standard deviation at each time point is shown in Figure 5A and corresponding PK parameters are summarized in Table 2. M-I was rapidly absorbed with a maximum plasma concentration 1 h post-IP and PO dose. […] The observed elimination half-life was 0.9 h in the IP group and 2 h in the PO group. The oral group had loose stool, starting four hours post-dose, which had not re-solved by 8 h but all mice appeared normal after twenty-four hours. […] We therefore selected IP administration of M-I for subsequence studies.\nThe pharmacokinetic (PK) study of M-I was performed in male C57Bl/6 mice. A sin-gle dose of M-I (formulated at 2 mg/mL dissolved in 5% DMSO/95% of a 30% w:v Captisol solution) was administered either by intraperitoneal injection (IP group, n = 3) or oral ga-vage (PO group, n = 3). After dosing, 20 µL blood samples were collected into heparin pre-coated tubes at 5 min, 15 min, 30 min, 1 h, 2 h, 4 h, 6 h, 8 h and 24 h. Samples were centrifuged, and the plasma collected. M-I concentration was determined using liq-uid chromatography-mass spectrometry/mass spectrometry (LC-MS/MS) as described earlier."}, "[2]": {"assay": "Toxicity study, 5 days, body weight and serum chemistries", "type": "in vivo, C57Bl/6 male mice", "procedure": "For toxicity analysis, mice (n = 3) were given 20 mg/ kg of M-I twice a day or 30 mg/kg IP dose of M-I once a day by IP injection for five days. In parallel, there were untreated control (n = 3) and BME treated group (n = 3) for comparison. Behavior and body weight of mice were monitored daily. The body weight in all the mice was stable, with no drastic changes seen in any of the mice tested. We collected blood on day six, and serum chemistries related to liver and kidney function were examined.\nFor toxicity study, C57Bl/6 male mice were received either 30% BME through drinking water or 20 mg/kg of M-I twice a day or 30 mg/kg of M-I once a day by IP injection for 5 days. There were three mice in each group, including untreated control. Blood was collected on day 6, and serum was prepared. Serum parameters related to hepatotoxicity (total bilirubin, alanine transaminase, aspartate transaminase, and alkaline phosphatase) and nephrotoxicity (urea and creatinine) were performed."}},
  "note": "Values joined by “and” are separate entries in the source; they are usually repeats but may differ in a detail not shown here. Identical values can stand only once. Like-named read-outs stand apart in the source and are kept apart here.",
  "data": [
    {"compound": "CC(C)=CC(O)CC(C)[C@H]1CC[C@@]2(C)[C@@H]3[C@@H](O)C=C4[C@@H](CC[C@H](O)C4(C)C)[C@]3(C=O)CC[C@]12C", "note": "(stereo partly drawn) [M-I, (3S, 7S, 8S, 9R, 10R, 13R, 14S, 17R) 3,7-dihydroxy-17-(4-hydroxy-6-methylhept-5-en-2-yl)-4,4,13,14-tetramethyl-2,3,7,8,10,11, 12,15,16,17-decahydro-1H-cyclopenta[a]phenanthrene-9-carbaldehyde]", "values": [
      {"measurement": "c-Met expression", "setting": "c-Met", "value": "significant reduction"},
      {"measurement": "phospho-STAT3 (Tyr-705) expression", "setting": "phospho-STAT3 (Tyr-705); Cal27 and JHU029 cells, 48 hr, 2% BME or 10 µg/mL M-I", "value": "significant reduction"},
      {"measurement": "pSTAT3 level, short term treatment", "setting": "phospho-STAT3 (Tyr-705); Cal27 cells, 15 min, 2% BME or 10 μg/mL M-I", "value": "inhibits"},
      {"measurement": "total STAT3 level", "setting": "total STAT3; Cal27 and JHU029 cells, 48 hr, 10 µg/mL M-I", "value": "substantial reduction"},
      {"measurement": "total STAT3 level, short term treatment", "setting": "total STAT3; 15 min", "value": "without affecting"},
      {"measurement": "total STAT3 level, short term treatment", "setting": "total STAT3; 240 min", "value": "inhibited"},
      {"measurement": "adverse events in PK study", "setting": "[1]; 20 mg/kg IP", "value": "No adverse events"},
      {"measurement": "AUC (%Extrap)", "setting": "[1]; 20 mg/kg IP, plasma, mean ± SD", "value": "0.33 ± 0.08", "unit": "%"},
      {"measurement": "AUC (%Extrap)", "setting": "[1]; 20 mg/kg PO, plasma, mean ± SD", "value": "6.84 ± 1.5", "unit": "%"},
      {"measurement": "T½ (elimination half-life)", "setting": "[1]; 20 mg/kg PO, plasma, mean ± SD", "value": "2.11 ± 0.3", "unit": "h"},
      {"measurement": "adverse events in PK study", "setting": "[1]; 20 mg/kg oral gavage, starting four hours post-dose, normal after twenty-four hours", "value": "loose stool"},
      {"measurement": "AUC(0-t)", "setting": "[1]; 20 mg/kg IP, plasma, mean ± SD", "value": 12700, "unit": "ng·h/mL"},
      {"measurement": "Tmax", "setting": "[1]; 20 mg/kg IP, plasma, mean ± SD", "value": 1, "unit": "h"},
      {"measurement": "AUC(0-inf)", "setting": "[1]; 20 mg/kg IP, plasma, mean ± SD", "value": 12800, "unit": "ng·h/mL"},
      {"measurement": "AUC(0-t)", "setting": "[1]; 20 mg/kg PO, plasma, mean ± SD", "value": 643, "unit": "ng·h/mL"},
      {"measurement": "Tmax", "setting": "[1]; 20 mg/kg PO, plasma, mean ± SD", "value": "1 ± 0.9", "unit": "h"},
      {"measurement": "AUC(0-inf)", "setting": "[1]; 20 mg/kg PO, plasma, mean ± SD", "value": 688, "unit": "ng·h/mL"},
      {"measurement": "Cmax", "setting": "[1]; plasma, ip, 20 mg/kg IP, mean ± SD", "value": "18 µM and 8430 ng/mL"},
      {"measurement": "half-life", "setting": "[1]; plasma, ip, 20 mg/kg IP, plasma, mean ± SD", "value": "0.9 ± 0.02", "unit": "h"},
      {"measurement": "Cmax", "setting": "[1]; plasma, po, 20 mg/kg PO, mean ± SD", "value": "500 nM and 214 ng/mL"},
      {"measurement": "half-life", "setting": "[1]; plasma, po, 20 mg/kg PO, plasma, mean ± SD", "value": 2, "unit": "h"},
      {"measurement": "body weight", "setting": "[2]; M-I 20 mg/kg twice a day or 30 mg/kg once a day IP, or 30% BME in drinking water, five days", "value": "stable"},
      {"measurement": "serum chemistries (total bilirubin, alanine transaminase, aspartate transaminase, alkaline phosphatase, creatinine, urea, glucose) versus untreated control", "setting": "[2]; blood on day six, M-I IP for five days or 30% BME in drinking water", "value": "comparable"}
    ]}
  ]
}
